{
  "source": "patent US6982142B2",
  "about": "“Methods for screening therapeutically effective agents” (John Wayne Cancer Institute, priority 1997, dated 2006)",
  "system": "MCF-7-AdrR cells",
  "experiment": "Cell radiolabeling and TLC/LSC analysis of ceramide, glucosylceramide and sphingomyelin in MDR breast cancer cells",
  "assay_type": "cell-based, human",
  "conditions": "adriamycin 2.5, PSC 833 5.0 μM, tamoxifen 5.0 μM alone or combined, 24 h, [3H]palmitic acid",
  "method": "Cells. Experiments were conducted using the human MDR breast cancer cell line, MCF-7 AdrR (adriamycin resistant) provided by Drs. Kenneth H. Cowan and Merrill E. Goldsmith, National Cancer Institute. Cells were grown in RPMI-1640 medium containing 10% FBS (fetal bovine serum) and antibiotics as previously described (Lavie, 1997) and cultures were maintained in a humidified 6.5% CO2 atmosphere incubator. Trypsin (0.05%) and EDTA (0.5 mM) were used for subculture. Plastic tissue cultureware, was from Costar (96-well plates) and Corning (6-well plates, 6-cm dishes, T-75 flasks). Limited experiments were conducted using the human MDR epidermoid carcinoma cell line, KBV-1, provided by Dr. Michael M. Gottesman, National Cancer Institute. Cells were maintained as described (Lavie, 1996). Vinblastine was eliminated from the culture medium during the experiments.\nCell Radiolabeling and Lipid/Glycolipid Analysis. To follow lipid metabolism, cells were grown in the presence of tritiated ceramide precursors, L-[^3H]serine (20 Ci/mmol) (American Radiolabeled Chemicals, Inc., St. Louis), and [9, 10-^3H]palmitic acid (50 Ci/mmol) (DuPont NEN). Labeling media were prepared by adding microliter amounts of tritiated compounds (supplied in ethanol or sterile water) to medium containing only 5% FBS. After radiolabeling, 0.1 ml aliquots of medium were removed and analyzed by LSC (Lavie, 1997), in order to determine cellular uptake of the tritiated compounds. Cell monolayers were then rinsed twice with cold phosphate-buffered saline. Ice cold methanol containing 2% acetic acid was added, and cells were scraped free of the substratum (plastic scraper) for lipid extraction using chloroform and water in 1-dram glass vials as described (Lavie, 1997; Lavie, 1996; Bligh and Dyer, 1959). After centrifugation, the resulting organic lower phase of the biphasic extraction was withdrawn, transferred to a glass vial, and evaporated to dryness under a stream of nitrogen.\nRadioactivity in glucosylceramide was analyzed by TLC resolution of total lipids (Silica Gel G) using a solvent system containing chloroform/methanol/ammonium hydroxide (80:20:2, v/v/v). Migration of glucosylceramide on TLC was compared with that of commercial standard (glucocerebrosides, Gaucher's spleen, Matreya, Inc., Pleasant Gap, Pa.), and lipid spots, after iodine vapor visualization, were scraped for tritium quantitation by LSC (Lavie, 1997; Lavie, 1996). […] Ceramide and sphingomyelin commercial standards (brain-derived) were from Avanti Polar Lipids, Alabaster, Ala. After iodine visualization of lipids, areas of the chromatogram corresponding to ceramide and sphingomyelin were scraped into minivials containing 0.5 ml water followed by 4.5 ml EcoLume (ICN, Costa Mesa, Calif.), and samples were analyzed for tritium by liquid scintillation spectrometry. Alternative analysis of ceramide consisted of subjecting an aliquot of the total cell lipid extract to mild alkaline hydrolysis (0.1 N KOH in methanol, 1 h at 37° C.) followed by re-extraction (Lavie, 1997). […] The same can also be done without tritium by simply applying 100-200 μg total cell lipid to TLC plates and developing them in the appropriate solvent, then spraying them with 30% H2SO4, charring the plate in an oven at 180° C. for 20 min, and measuring lipid mass by densitometry.",
  "data": [
    {"compound": "CC/C(=C(\\c1ccccc1)c1ccc(OCCN(C)C)cc1)c1ccccc1", "note": "[tamoxifen, Tamoxifen]", "values": [
      {"measurement": "ceramide level, increase over control", "result": 0.3, "unit": "fold"}
    ]}
  ]
}
